{
  "source": "patent US10323022B2",
  "about": "“Pyrrolidinyl urea, pyrrolidinyl thiourea and pyrrolidinyl guanidine compounds as TrkA kinase inhibitors” (Array BioPharma Inc., priority 2011, dated 2019)",
  "note": "pIC50: −log10 of the molar value.",
  "data": [
    {"biological_target": "TrkA (Homo sapiens (Human), UniProt P04629)", "sequence (P04629 33-796)": "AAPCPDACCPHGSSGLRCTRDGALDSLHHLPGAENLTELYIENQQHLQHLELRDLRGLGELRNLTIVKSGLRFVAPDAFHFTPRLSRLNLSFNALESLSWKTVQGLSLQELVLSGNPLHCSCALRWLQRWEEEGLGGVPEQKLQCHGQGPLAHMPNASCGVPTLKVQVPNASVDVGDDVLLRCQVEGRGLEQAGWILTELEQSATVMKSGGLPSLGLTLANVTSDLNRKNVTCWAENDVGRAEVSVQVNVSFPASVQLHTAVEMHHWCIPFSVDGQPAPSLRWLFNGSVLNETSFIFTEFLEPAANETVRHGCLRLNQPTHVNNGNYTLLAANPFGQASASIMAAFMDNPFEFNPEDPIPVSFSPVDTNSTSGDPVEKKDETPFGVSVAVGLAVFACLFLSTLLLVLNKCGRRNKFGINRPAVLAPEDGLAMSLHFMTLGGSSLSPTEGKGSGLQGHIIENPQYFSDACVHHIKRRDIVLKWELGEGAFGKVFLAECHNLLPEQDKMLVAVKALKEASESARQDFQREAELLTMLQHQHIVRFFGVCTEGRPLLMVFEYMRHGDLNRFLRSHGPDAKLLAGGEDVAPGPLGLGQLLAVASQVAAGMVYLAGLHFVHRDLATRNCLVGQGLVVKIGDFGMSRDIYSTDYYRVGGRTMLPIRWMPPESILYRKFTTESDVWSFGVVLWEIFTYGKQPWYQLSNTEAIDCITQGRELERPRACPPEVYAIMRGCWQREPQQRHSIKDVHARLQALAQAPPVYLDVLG", "test": "TrkA Omnia Assay", "assay_type": "biochemical", "conditions": "averaged IC50; 20 nM enzyme, 500 μM ATP, 10 μM peptide substrate", "in_short": "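Recombinant TrkA (20 nM) preincubated 10 min at ambient temperature with compound, then Omnia Tyr Peptide #4 (10 μM) and ATP (500 μM) added in 25 mM MOPS pH 7.5, 5 mM MgCl2, 0.005% Triton X-100. Fluorescence (ex 360/em 485 nm) followed continuously for 70 min; IC50 from initial rates by 4- or 5-parameter logistic fit.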", "values": [
      {"smiles": "COCCN1CC(NC(=O)Nc2c3c(nn2-c2ccccc2)CCC3)[C@H](c2cccc(OC)c2)C1", "note": "(stereo partly drawn) [Example 48, 1-((3,4-trans)-1-(2-methoxyethyl)-4-(3-methoxyphenyl)pyrrolidin-3-yl)-3-(2-phenyl-2,4,5,6-tetrahydrocyclopenta[c]pyrazol-3-yl)urea]", "pIC50": "6.00 to 7.00"},
      {"smiles": "COCCN1C[C@@H](NC(=O)Nc2cc(C(F)(F)F)nn2-c2ccccc2)[C@H](c2ccccc2)C1", "note": "[Example 53, 1-((3S,4R)-1-(2-methoxyethyl)-4-phenylpyrrolidin-3-yl)-3-(1-phenyl-3-(trifluoromethyl)-1H-pyrazol-5-yl)urea]", "pIC50": "> 7.00"},
      {"smiles": "COCCN1C[C@@H](NC(=O)Nc2c(C)c(-c3ccccc3)nn2C)[C@H](c2ccccc2)C1", "note": "[Example 54, 1-(1,4-dimethyl-3-phenyl-1H-pyrazol-5-yl)-3-((3S,4R)-1-(2-methoxy-ethyl)-4-phenylpyrrolidin-3-yl)urea]", "pIC50": "5.00 to 6.00"},
      {"smiles": "COCCN1C[C@@H](NC(=O)Nc2cc(C3CC3)nn2C)[C@H](c2cc(F)cc(F)c2)C1", "note": "[Example 55, 1-(3-cyclopropyl-1-methyl-1H-pyrazol-5-yl)-3-((3S,4R)-4-(3,5-difluorophenyl)-1-(2-methoxyethyl)pyrrolidin-3-yl)urea]", "pIC50": "6.00 to 7.00"},
      {"smiles": "COCCN1C[C@@H](NC(=O)Nc2cc(-c3ccccn3)nn2C)[C@H](c2cc(F)cc(F)c2)C1", "note": "[Example 56, 1-((3S,4R)-4-(3,5-difluorophenyl)-1-(2-methoxyethyl)pyrrolidin-3-yl)-3-(1-methyl-3-(pyridin-2-yl)-1H-pyrazol-5-yl)urea]", "pIC50": "> 7.00"},
      {"smiles": "COCCN1C[C@@H](NC(=O)Nc2cc(-c3cccnc3)nn2C)[C@H](c2cc(F)cc(F)c2)C1", "note": "[Example 57, 1-((3S,4R)-4-(3,5-difluorophenyl)-1-(2-methoxyethyl)pyrrolidin-3-yl)-3-(1-methyl-3-(pyridin-3-yl)-1H-pyrazol-5-yl)urea]", "pIC50": "> 7.00"},
      {"smiles": "COCCN1C[C@@H](NC(=O)Nc2cc(-c3cnn(C)c3)nn2C)[C@H](c2ccc(F)c(F)c2)C1", "note": "[Example 58, 1-((3S,4R)-4-(3,4-difluorophenyl)-1-(2-methoxyethyl)pyrrolidin-3-yl)-3-(1,1′-dimethyl-1H,1′H-3,4′-bipyrazol-5-yl)urea]", "pIC50": "> 7.00"},
      {"smiles": "COCCN1C[C@@H](NC(=O)Nc2cc(-c3cccc(C#N)c3)nn2C)[C@H](c2ccc(F)c(F)c2)C1", "note": "[Example 59, 1-(3-(3-cyanophenyl)-1-methyl-1H-pyrazol-5-yl)-3-((3S,4R)-4-(3,4-difluorophenyl)-1-(2-methoxyethyl)pyrrolidin-3-yl)urea]", "pIC50": "> 7.00"},
      {"smiles": "COCCN1C[C@@H](NC(=O)Nc2cc(-c3ccc(C#N)cc3)nn2C)[C@H](c2ccc(F)c(F)c2)C1", "note": "[Example 60, 1-(3-(4-cyanophenyl)-1-methyl-1H-pyrazol-5-yl)-3-((3S,4R)-4-(3,4-difluorophenyl)-1-(2-methoxyethyl)pyrrolidin-3-yl)urea]", "pIC50": "> 7.00"},
      {"smiles": "COCCN1C[C@@H](NC(=O)Nc2cc(-c3cccc4nccn34)nn2C)[C@H](c2ccc(F)c(F)c2)C1", "note": "[Example 61, 1-((3S,4R)-4-(3,4-difluorophenyl)-1-(2-methoxyethyl)pyrrolidin-3-yl)-3-(3-(imidazo[1,2-a]pyridin-5-yl)-1-methyl-1H-pyrazol-5-yl)urea]", "pIC50": "> 7.00"},
      {"smiles": "COCCN1C[C@@H](NC(=O)Nc2c(Cl)c(-c3ccccc3)nn2-c2ccccc2)[C@H](c2ccc(F)c(F)c2)C1", "note": "[Example 62, 1-(4-chloro-1,3-diphenyl-1H-pyrazol-5-yl)-3-((3S,4R)-4-(3,4-difluorophenyl)-1-(2-methoxyethyl)pyrrolidin-3-yl)urea]", "pIC50": "> 7.00"},
      {"smiles": "COCCN1C[C@@H](NC(=O)Nc2c(Br)c(-c3ccccc3)nn2-c2ccccc2)[C@H](c2ccc(F)c(F)c2)C1", "note": "[Example 63, 1-(4-bromo-1,3-diphenyl-1H-pyrazol-5-yl)-3-((3S,4R)-4-(3,4-difluorophenyl)-1-(2-methoxyethyl)pyrrolidin-3-yl)urea]", "pIC50": "> 7.00"},
      {"smiles": "COCCN1C[C@@H](NC(=O)Nc2c(Cl)c(C)nn2-c2ccccc2)[C@H](c2ccc(F)c(F)c2)C1", "note": "[Example 64, 1-(4-chloro-3-methyl-1-phenyl-1H-pyrazol-5-yl)-3-((3S,4R)-4-(3,4-difluorophenyl)-1-(2-methoxyethyl)pyrrolidin-3-yl)urea]", "pIC50": "> 7.00"},
      {"smiles": "COCCN1C[C@@H](NC(=O)Nc2c(-c3ccccc3)c(C)nn2C)[C@H](c2ccc(F)c(F)c2)C1", "note": "[Example 65, 1-((3S,4R)-4-(3,4-difluorophenyl)-1-(2-methoxyethyl)pyrrolidin-3-yl)-3-(1,3-dimethyl-4-phenyl-1H-pyrazol-5-yl) urea]", "pIC50": "> 7.00"},
      {"smiles": "COCCN1C[C@@H](NC(=O)Nc2c(C#N)c(C)nn2-c2ccccc2)[C@H](c2ccc(F)c(F)c2)C1", "note": "[Example 66, 1-(4-cyano-3-methyl-1-phenyl-1H-pyrazol-5-yl)-3-((3S,4R)-4-(3,4-difluorophenyl)-1-(2-methoxyethyl)pyrrolidin-3-yl)urea]", "pIC50": "> 7.00"},
      {"smiles": "COCCN1C[C@@H](NC(=O)Nc2c(Cl)c(-c3ccccc3)nn2C)[C@H](c2ccc(F)c(F)c2)C1", "note": "[Example 67, 1-(4-chloro-1-methyl-3-phenyl-1H-pyrazol-5-yl)-3-((3S,4R)-4-(3,4-difluorophenyl)-1-(2-methoxyethyl)pyrrolidin-3-yl)urea]", "pIC50": "6.00 to 7.00"},
      {"smiles": "COCCN1C[C@@H](NC(=O)Nc2c(Br)c(-c3ccccc3)nn2C)[C@H](c2ccc(F)c(F)c2)C1", "note": "[Example 68, 1-(4-bromo-1-methyl-3-phenyl-1H-pyrazol-5-yl)-3-((3S,4R)-4-(3,4-difluorophenyl)-1-(2-methoxyethyl)pyrrolidin-3-yl)urea]", "pIC50": "5.00 to 6.00"},
      {"smiles": "COCCN1C[C@@H](NC(=O)Nc2c(C#N)c(CC#N)nn2-c2ccccc2)[C@H](c2ccc(F)c(F)c2)C1", "note": "[Example 70, 1-(4-cyano-3-(cyano-methyl)-1-phenyl-1H-pyrazol-5-yl)-3-((3S,4R)-4-(3,4-difluorophenyl)-1-(2-methoxyethyl)pyrrolidin-3-yl)urea]", "pIC50": "> 7.00"},
      {"smiles": "COCCN1C[C@@H](NC(=O)Nc2cc(C(C)(C)C#N)nn2-c2ccccc2)[C@H](c2ccc(F)c(F)c2)C1", "note": "[Example 71, 1-(3-(2-cyanopropan-2-yl)-1-phenyl-1H-pyrazol-5-yl)-3-((3S,4R)-4-(3,4-difluorophenyl)-1-(2-methoxyethyl)pyrrolidin-3-yl)urea]", "pIC50": "> 7.00"},
      {"smiles": "CCc1nn(-c2ccccc2)c(NC(=O)N[C@@H]2CN(CCOC)C[C@H]2c2ccc(F)c(F)c2)c1C", "note": "[Example 72, 1-((3S,4R)-4-(3,4-difluorophenyl)-1-(2-methoxyethyl)pyrrolidin-3-yl)-3-(3-ethyl-4-methyl-1-phenyl-1H-pyrazol-5-yl)urea]", "pIC50": "> 7.00"},
      {"smiles": "COCCN1C[C@@H](NC(=O)Nc2cc(-c3cnn(C)c3)nn2-c2ccccc2)[C@H](c2ccc(F)c(F)c2)C1", "note": "[Example 73, 1-((3S,4R)-4-(3,4-difluorophenyl)-1-(2-methoxyethyl)pyrrolidin-3-yl)-3-(1′-methyl-1-phenyl-1H,1′H-3,4′-bipyrazol-5-yl)urea]", "pIC50": "> 7.00"},
      {"smiles": "COCCN1C[C@@H](NC(=O)Nc2c(C)c(OCC3COC3)nn2-c2ccccc2)[C@H](c2ccc(F)c(F)c2)C1", "note": "[Example 74, 1-((3S,4R)-4-(3,4-difluorophenyl)-1-(2-methoxyethyl)pyrrolidin-3-yl)-3-(4-methyl-3-(oxetan-3-ylmethoxy)-1-phenyl-1H-pyrazol-5-yl)urea]", "pIC50": "> 7.00"}
    ]}
  ]
}
